# Target: T1, Met kinase domain (GST fusion protein) (Homo sapiens, UniProt P08581)
# T1 construct: Purified GST fusion protein containing the Met kinase domain
# Test: Met transphosphorylation assay (ELISA, poly(glu-tyr) substrate);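 also: Cell-free ELISA with plate-bound poly(Glu:Tyr 4:1) phosphorylated by GST-fused Met kinase domain plus ATP and Mn2+, phosphotyrosine detected by anti-phosphotyrosine antibody with HRP and ABTS read-out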
# Format: biochemical
# Details: plain numbers in column Met IC50 (μM) of Table 2; read-out: Met IC50
# T1 sequence (P08581 1078-1345 limits assumed): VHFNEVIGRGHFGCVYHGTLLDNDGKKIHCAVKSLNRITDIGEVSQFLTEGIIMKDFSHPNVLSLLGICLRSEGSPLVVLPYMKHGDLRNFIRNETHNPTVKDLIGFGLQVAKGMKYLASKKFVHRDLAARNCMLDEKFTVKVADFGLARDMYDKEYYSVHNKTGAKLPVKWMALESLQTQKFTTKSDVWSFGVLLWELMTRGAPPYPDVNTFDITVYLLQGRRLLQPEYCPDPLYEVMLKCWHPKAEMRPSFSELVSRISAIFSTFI
row,SMILES,IC50
1,"CC(Oc1cc(-c2cccc(C(=O)N3CCC[C@H]3CN3CCCC3)c2)cnc1N)c1c(Cl)cccc1Cl (stereo partly drawn) [Example I-391, (3-{6-Amino-5-[1-(2,6-dichloro-phenyl)-ethoxy]-pyridin-3-yl}-phenyl)-((S)-2-pyrrolidin-1-ylmethyl-pyrrolidin-1-yl)-methanone]",0.098 µM
2,"CC(=O)N1CCN(CCNC(=O)c2cccc(-c3cnc(N)c(OC(C)c4c(Cl)cccc4Cl)c3)c2)CC1 (stereo not shown) [Example I-393, N-[2-(4-Acetyl-piperazin-1-yl)-ethyl]-3-{6-amino-5-[1-(2,6-dichloro-phenyl)-ethoxy]-pyridin-3-yl}-benzamide]",0.079 µM
3,"CC(Oc1cc(-c2cccc(C(=O)NC3CCN(C)CC3)c2)cnc1N)c1c(Cl)cccc1Cl (stereo not shown) [Example I-394, 3-{6-Amino-5-[1-(2,6-dichloro-phenyl)-ethoxy]-pyridin-3-yl}-N-(1-methyl-piperidin-4-yl)-benzamide]",0.061 µM
4,"CC(Oc1cc(-c2cccc(C(=O)N3CCN(C)CC3)c2)cnc1N)c1c(Cl)cccc1Cl (stereo not shown) [Example I-395, (3-{6-amino-5-[1-(2,6-dichloro-phenyl)-ethoxy]-pyridin-3-yl}-phenyl)-(4-methyl-piperazin-1-yl)-methanone]",0.058 µM
5,"CC(Oc1cc(-c2cccc(C(=O)N3CCC[C@@H]3CN3CCCC3)c2)cnc1N)c1c(Cl)cccc1Cl (stereo partly drawn) [Example I-396, (3-{6-Amino-5-[1-(2,6-dichloro-phenyl)-ethoxy]-pyridin-3-yl}-phenyl)-((R)-2-pyrrolidin-1-ylmethyl-pyrrolidin-1-yl)-methanone]",0.18 µM
6,"CC(Oc1cc(-c2cccc(C(=O)N3CC[C@H](N)C3)c2)cnc1N)c1c(Cl)cccc1Cl (stereo partly drawn) [Example I-397, (3-{6-Amino-5-[1-(2,6-dichloro-phenyl)-ethoxy]-pyridin-3-yl}-phenyl)-((S)-3-amino-pyrrolidin-1-yl)-methanone]",0.055 µM
7,"CC(Oc1cc(-c2cccc(C(=O)N3CC[C@@H](N)C3)c2)cnc1N)c1c(Cl)cccc1Cl (stereo partly drawn) [Example I-398, (3-{6-Amino-5-[1-(2,6-dichloro-phenyl)-ethoxy]-pyridin-3-yl}-phenyl)-((R)-3-amino-pyrrolidin-1-yl)-methanone]",0.072 µM
8,"CC(Oc1cc(-c2ccc(C(=O)NC3CCN(C)CC3)cc2)cnc1N)c1c(Cl)cccc1Cl (stereo not shown) [Example I-403, 4-{6-Amino-5-[1-(2,6-dichloro-phenyl)-ethoxy]-pyridin-3-yl}-N-(1-methyl-piperidin-4-yl)-benzamide]",0.062 µM
9,"CC(Oc1cc(-c2ccc(C(=O)N3C[C@@H](C)N[C@@H](C)C3)cc2)cnc1N)c1c(Cl)cccc1Cl (stereo partly drawn) [Example I-404, (4-{6-Amino-5-[1-(2,6-dichloro-phenyl)-ethoxy]-pyridin-3-yl}-phenyl)-((3R,5S)-3,5-dimethyl-piperazin-1-yl)-methanone]",0.052 µM
10,"CC(=O)N1CCN(CCNC(=O)c2ccc(-c3cnc(N)c(OC(C)c4c(Cl)cccc4Cl)c3)cc2)CC1 (stereo not shown) [Example I-405, N-[2-(4-Acetyl-piperazin-1-yl)-ethyl]-4-{6-amino-5-[1-(2,6-dichloro-phenyl)-ethoxy]-pyridin-3-yl}-benzamide]",0.062 µM
11,"CC(Oc1cc(-c2ccc(C(=O)N3CC[C@H](N)C3)cc2)cnc1N)c1c(Cl)cccc1Cl (stereo partly drawn) [Example I-407, (4-{6-Amino-5-[1-(2,6-dichloro-phenyl)-ethoxy]-pyridin-3-yl}-phenyl)-((S)-3-aminopyrrolidin-1-yl)-methanone]",0.05 µM
12,"CC(Oc1cc(-c2ccc(C(=O)N3CC[C@@H](N)C3)cc2)cnc1N)c1c(Cl)cccc1Cl (stereo partly drawn) [Example I-408, (4-{6-Amino-5-[1-(2,6-dichloro-phenyl)-ethoxy]-pyridin-3-yl}-phenyl)-((R)-3-amino-pyrrolidin-1-yl)-methanone]",0.049 µM
13,"CC(Oc1cc(-c2ccc(C(=O)N3CCC(N4CCCC4)CC3)cc2)cnc1N)c1c(Cl)cccc1Cl (stereo not shown) [Example I-410, (4-{6-Amino-5-[1-(2,6-dichloro-phenyl)-ethoxy]-pyridin-3-yl}-phenyl)-(4-pyrrolidin-1-yl-piperidin-1-yl)-methanone]",0.055 µM
14,"CC(Oc1cc(-c2ccc(C(=O)N3CCN(C)CC3)cc2)cnc1N)c1c(Cl)cccc1Cl (stereo not shown) [Example I-411, (4-{6-Amino-5-[1-(2,6-dichloro-phenyl)-ethoxy]-pyridin-3-yl}-phenyl)-(4-methyl-piperazin-1-yl)-methanone]",0.053 µM
15,"CC(Oc1cc(C#CCNC(=O)NCCCN2CCOCC2)cnc1N)c1c(Cl)ccc(F)c1Cl (stereo not shown) [Example I-420, 1-(3-{6-Amino-5-[1-(2,6-dichloro-3-fluoro-phenyl)-ethoxy]-pyridin-3-yl}-prop-2-ynyl)-3-(3-morpholin-4-yl-propyl)-urea]",0.064 µM

# Next, values leading:
row,IC50,SMILES
1,0.13 µM,"CC(Oc1cc(-c2cccc(C(=O)NCCN3CCCC3)c2)cnc1N)c1c(Cl)cccc1Cl (stereo not shown) [Example I-389, 3-{6-Amino-5-[1-(2,6-dichloro-phenyl)-ethoxy]-pyridin-3-yl}-N-(2-pyrrolidin-1-yl-ethyl)-benzamide]"
2,0.12 µM,"CC(Oc1cc(-c2cccc(C(=O)NCCN3CCOCC3)c2)cnc1N)c1c(Cl)cccc1Cl (stereo not shown) [Example I-390, 3-{6-Amino-5-[1-(2,6-dichloro-phenyl)-ethoxy]-pyridin-3-yl}-N-(2-morpholin-4-yl-ethyl)-benzamide]"
3,0.072 µM,"CC(Oc1cc(-c2cccc(C(=O)NCCCN3CCCC3)c2)cnc1N)c1c(Cl)cccc1Cl (stereo not shown) [Example I-392, 3-{6-Amino-5-[1-(2,6-dichloro-phenyl)-ethoxy]-pyridin-3-yl}-N-(3-pyrrolidin-1-yl-propyl)-benzamide]"
4,0.073 µM,"CC(Oc1cc(-c2ccc(C(=O)NCCN3CCOCC3)cc2)cnc1N)c1c(Cl)cccc1Cl (stereo not shown) [Example I-401, 4-{6-Amino-5-[1-(2,6-dichloro-phenyl)-ethoxy]-pyridin-3-yl}-N-(2-morpholin-4-yl-ethyl)-benzamide]"
5,0.061 µM,"CC(Oc1cc(-c2ccc(C(=O)NCCCN3CCCC3)cc2)cnc1N)c1c(Cl)cccc1Cl (stereo not shown) [Example I-406, 4-{6-Amino-5-[1-(2,6-dichloro-phenyl)-ethoxy]-pyridin-3-yl}-N-(3-pyrrolidin-1-yl-propyl)-benzamide]"
6,0.067 µM,"CC(Oc1cc(C#CCNC(=O)N2CCC[C@H]2CN2CCCC2)cnc1N)c1c(Cl)ccc(F)c1Cl (stereo partly drawn) [Example I-412, (S)-2-Pyrrolidin-1-ylmethyl-pyrrolidine-1-carboxylic acid (3-{6-amino-5-[1-(2,6-dichloro-3-fluoro-phenyl)-ethoxy]-pyridin-3-yl}-prop-2-ynyl)-amide]"
7,0.056 µM,"CC(Oc1cc(C#CCNC(=O)N2CCN(C)CC2)cnc1N)c1c(Cl)ccc(F)c1Cl (stereo not shown) [Example I-413, 4-Methyl-piperazine-1-carboxylic acid (3-{6-amino-5-[1-(2,6-dichloro-3-fluoro-phenyl)-ethoxy]-pyridin-3-yl}-prop-2-ynyl)-amide]"
8,0.058 µM,"CC(Oc1cc(C#CCNC(=O)N2CCC(N3CCCC3)CC2)cnc1N)c1c(Cl)ccc(F)c1Cl (stereo not shown) [Example I-414, 4-Pyrrolidin-1-yl-piperidine-1-carboxylic acid (3-{6-amino-5-[1-(2,6-dichloro-3-fluoro-phenyl)-ethoxy]-pyridin-3-yl}-prop-2-ynyl)-amide]"
9,0.063 µM,"CC(Oc1cc(C#CCNC(=O)N2C[C@@H](C)N[C@@H](C)C2)cnc1N)c1c(Cl)ccc(F)c1Cl (stereo partly drawn) [Example I-415, (3R,5S)-3,5-Dimethyl-piperazine-1-carboxylic acid (3-{6-amino-5-[1-(2,6-dichloro-3-fluoro-phenyl)-ethoxy]-pyridin-3-yl}-prop-2-ynyl)-amide]"
10,0.051 µM,"CC(Oc1cc(C#CCNC(=O)NC2CCN(C)CC2)cnc1N)c1c(Cl)ccc(F)c1Cl (stereo not shown) [Example I-416, 1-(3-{6-Amino-5-[1-(2,6-dichloro-3-fluoro-phenyl)-ethoxy]-pyridin-3-yl}-prop-2-ynyl)-3-(1-methyl-piperidin-4-yl)-urea]"
11,0.062 µM,"CC(Oc1cc(C#CCNC(=O)NCCCN2CCCC2)cnc1N)c1c(Cl)ccc(F)c1Cl (stereo not shown) [Example I-417, 1-(3-{6-Amino-5-[1-(2,6-dichloro-3-fluoro-phenyl)-ethoxy]-pyridin-3-yl}-prop-2-ynyl)-3-(3-pyrrolidin-1-yl-propyl)-urea]"
12,0.052 µM,"CC(Oc1cc(C#CCNC(=O)NCCN2CCCC2)cnc1N)c1c(Cl)ccc(F)c1Cl (stereo not shown) [Example I-418, 1-(3-{6-Amino-5-[1-(2,6-dichloro-3-fluoro-phenyl)-ethoxy]-pyridin-3-yl}-prop-2-ynyl)-3-(2-pyrrolidin-1-yl-ethyl)-urea]"
13,0.055 µM,CC(Oc1cc(C#CCNC(=O)NCCN2CCOCC2)cnc1N)c1c(Cl)ccc(F)c1Cl (stereo not shown) [Example I-419]
14,0.071 µM,CC(Oc1cc(C#CCNC(=O)N2CCC[C@@H]2CN2CCCC2)cnc1N)c1c(Cl)ccc(F)c1Cl (stereo partly shown) [Example I-421]
15,0.071 µM,"CC(Oc1cc(C#CCN(C)C)cnc1N)c1c(Cl)ccc(F)c1Cl (stereo not shown) [Example I-422, 3-[1-(2,6-Dichloro-3-fluoro-phenyl)-ethoxy]-5-(3-dimethylamino-prop-1-ynyl)-pyridin-2-ylamine]"
16,0.062 µM,"CC(Oc1cc(C#CCNC(N)=O)cnc1N)c1c(Cl)ccc(F)c1Cl (stereo not shown) [Example I-423, (3-{6-Amino-5-[1-(2,6-dichloro-3-fluoro-phenyl)-pnlethoxy]-pyridin-3-yl}-prop-2-ynyl)-area]"
17,0.016 µM,"CC(Oc1cc(C#CCNC(=O)CN2CCCCC2)cnc1N)c1c(Cl)ccc(F)c1Cl (stereo not shown) [Example I-424, N-(3-{6-Amino-5-[1-(2,6-dichloro-3-fluoro-phenyl)-ethoxy]-pyridin-3-yl}-prop-2-ynyl)-2-piperidin-1- -yl-acetamide]"
18,0.027 µM,"CC(Oc1cc(C#CCNC(=O)CN2CCOCC2)cnc1N)c1c(Cl)ccc(F)c1Cl (stereo not shown) [Example I-425, N-(3-{6-Amino-5-[1-(2,6-dichloro-3-fluoro-phenyl)-ethoxy]-pyridin-3-yl}-prop-2-ynyl)-2-morpholin-4-yl-acetamide]"
19,0.0091 µM,"CC(Oc1cc(C#CCNC(=O)CN2CCCC2)cnc1N)c1c(Cl)ccc(F)c1Cl (stereo not shown) [Example I-426, N-(3-{8-Amino-5-[1-(2,6-dichloro-3-fluoro-phenyl)-ethoxy]-pyridin-3-yl}-prop-2-ynyl)-2-pyrrolidin-1-yl-acetamide]"

# Reference: patent publication US20050009840A1 (SUGEN, INC., priority 2003, published 2005)
